Reference: ChEMBL document CHEMBL5357016, “Discovery of Novel PDEδ Autophagic Degraders: A Case Study of Autophagy-Tethering Compound (ATTEC)” (ACS Med Chem Lett, 2024)
Active and inactive are the calls of the source. No cut-off for these calls is given here.

Legend:
[1] = Drug uptake in lysosome of human HeLa cells assessed as drug fusion by measuring red fluorescence pretreated with compound for 2 hrs followed by probe administration and measured after 1.5 hrs by fluorescence imaging analysis; type: ADME, subcellular; conditions: 3.5 h
[2] = Drug localization in lysosome of human HeLa cells assessed as green fluorescence pretreated with compound for 2 hrs followed by probe administration and measured after 1.5 hrs by fluorescence imaging analysis; type: ADME, subcellular; conditions: 3.5 h
[3] = test system: CAPAN-1; experiment: Antiproliferative activity against human CAPAN-1 cells harboring KRAS mutant assessed as reduction in cell proliferation incubated for 72 hrs by CCK-8 assay; conditions: CAPAN-1, 72 h
[4] = test system: MIA PaCa-2; experiment: Antiproliferative activity against human MIA PaCa-2 cells harboring KRAS mutant assessed as reduction in cell proliferation incubated for 72 hrs by CCK-8 assay; conditions: MIA PaCa-2, 72 h
[5] = test system: MIA PaCa-2; experiment: Induction of apoptosis in human MIA PaCa-2 cells harboring KRAS mutant assessed as early apoptotic cells at 10 uM measured after 24 hrs by Annexin V-FITC/PI staining based flow cytometric analysis (Rvb= 4.62%); type: functional
[6] = test system: MIA PaCa-2; experiment: Induction of apoptosis in human MIA PaCa-2 cells harboring KRAS mutant assessed as necrotic cells at 1 uM measured after 24 hrs by Annexin V-FITC/PI staining based flow cytometric analysis (Rvb= 0.3%); type: functional
[7] = test system: MIA PaCa-2; experiment: Induction of apoptosis in human MIA PaCa-2 cells harboring KRAS mutant assessed as late apoptotic cells at 1 uM measured after 24 hrs by Annexin V-FITC/PI staining based flow cytometric analysis (Rvb= 10.56%); type: functional
[8] = test system: MIA PaCa-2; experiment: Induction of apoptosis in human MIA PaCa-2 cells harboring KRAS mutant assessed as early apoptotic cells at 1 uM measured after 24 hrs by Annexin V-FITC/PI staining based flow cytometric analysis (Rvb= 4.62%); type: functional
[9] = test system: MIA PaCa-2; experiment: Induction of apoptosis in human MIA PaCa-2 cells harboring KRAS mutant assessed as late apoptotic cells at 10 uM measured after 24 hrs by Annexin V-FITC/PI staining based flow cytometric analysis (Rvb= 10.56%); type: functional
[10] = test system: MIA PaCa-2; experiment: Effect on PDEdelta mRNA expression in human MIA PaCa-2 cells measured after 24 hrs by RT-qPCR analysis; type: functional, cell-based
[11] = test system: MIA PaCa-2; experiment: Induction of apoptosis in human MIA PaCa-2 cells harboring KRAS mutant assessed as necrotic cells at 10 uM measured after 24 hrs by Annexin V-FITC/PI staining based flow cytometric analysis (Rvb= 0.3%); type: functional

Row | Structure (SMILES) | Drug uptake [1] | Drug uptake [2] | IC50 [3] [µM] | IC50 [4] [µM] | Activity [5] [%] | Activity [6] [%] | Activity [7] [%] | Activity [8] [%] | Activity [9] [%] | Activity [10] | Activity [11] [%]
1 | O=C(COc1c(Br)cc(/C=C2\C(=O)Nc3ccc(I)cc32)cc1Br)NCCCOCCOCCOCCCNC(=S)Nc1ccc2c(c1)C(=O)OC21c2ccc(O)cc2Oc2cc(O)ccc21 | Active | Active |  |  |  |  |  |  |  |  | 
2 | Cc1ccc(-n2nc3c(=O)n(CCCC(=O)NCCOCCOCCNC(=O)COc4c(Br)cc(/C=C5\C(=O)Nc6ccc(I)cc65)cc4Br)nc(C)c3c2C)cc1 |  |  | 3.5 | 25 |  |  |  |  |  |  | 
3 | Cc1ccc(-n2nc3c(=O)n(CCCC(=O)NCCCCCCNC(=O)COc4c(Br)cc(/C=C5\C(=O)Nc6ccc(I)cc65)cc4Br)nc(C)c3c2C)cc1 |  |  | 0.8 | 1.4 | 9.76 | 0.43 | 18.43 | 3.8 | 23.49 | inactive | 11.64
